Experimental data from US20030190338A1, “Topical application of immixture of ascorbic acid + ascorbic acid compounds for augmenting the synthesis of epidermal ceramides” (SOCIETE L'OREAL S.A., priority 2000, published 2003).

Test system: skin equivalent marketed by EPISKIN (reconstructed epidermis)
Assay: Synthesis of epidermal ceramides in reconstructed epidermis (14C acetate labelling, HPTLC, densitometry)
Format: cell-based
Conditions: each compound alone at 15 μg/ml, relative to the untreated control; for % increase in ceramides in the epidermis equivalent: 24 hours of treatment; for % increase in the ceramides in the epidermis equivalent: 48 hours of treatment
Experimental: Ascorbic acid and derivatives thereof were tested on a skin equivalent marketed by EPISKIN (LYON, France), after culturing the latter for 7 days. The culture and test media were those included in the kit marketed by the supplier. Each compound was tested individually at 15 μg/ml and in combination with 5 μg/ml (as vitamin C equivalent), in the culture medium. The reconstructed epidermes were treated for 24 hours. The control consisted of an identical epidermis equivalent which was subjected to topical application of culture medium without the test compound.
The reconstructed epidermis was incubated overnight with ^14C acetate (2 μCi/ml) before topical application of vitamin C and derivatives thereof, to monitor the synthesis of the lipids.
At the end of the incubation period, the epidermis equivalent was detached from its collagenic support. The preparation of the lipids of the epidermis equivalent and their analysis by HPTLC or high-performance thin-layer chromatography, were carried out according to the technique and with the buffers described by M. Ponec (1991, Adv. Lipid Res., 24:83-117).
At the end of the migration, densitometric analysis of the autoradiograph was carried out using a densitometer of the FUJI brand, model 1800.
The procedure described in Example 1 was repeated, except that the test was performed over 48 hours instead of 24 hours. In addition, only vitamin C and vitamin CP were tested, the mixture of the two being formulated using 7.5 μg/ml of each vitamin.

Structure (SMILES)	% increase in ceramides in the epidermis equivalent	% increase in the ceramides in the epidermis equivalent
O=C1O[C@H]([C@@H](O)CO)C(O)=C1O [Vitamin C, ascorbic acid]	54%	126%
O=C1O[C@H]([C@@H](O)CO)C(O)=C1O[C@H]1O[C@H](CO)[C@@H](O)[C@H](O)[C@H]1O [Vitamin CG, ascorbyl 2-glucoside]	69%	
O=C1O[C@H]([C@@H](O)CO)C([O-])=C1OP(=O)([O-])[O-].O=C1O[C@H]([C@@H](O)CO)C([O-])=C1OP(=O)([O-])[O-].[Mg+2].[Mg+2].[Mg+2] [Vitamin CP, Magnesium ascorbyl phosphate]	99%	148%
